From patent US20240228555A9, “ANTIMICROBIAL PEPTIDOMIMETICS” (Basilea Pharmaceutica International AG, Allschwil, priority 2020, published 2024)
Where a SMILES comes first, the peptide text is derived from it.

Legend:
[1] = system: Escherichia coli ATCC 25922; settings: ATCC 25922
Protocol: (§1) Lyophilized peptides were weighed on a Microbalance (Mettler MT5) and dissolved in sterile water to a final concentration of 1 mg/mL. Stock solutions were kept at +4° C., light protected.
(§2) Colonies of the microorganisms were diluted in saline (0.85%, NaCl) and adjusted using a McFarland reader (bioMérieux SA, Marcy-l'Etoile, France) to 0.5 McFarland standard. Subsequently, the bacterial suspension was diluted in Mueller-Hinton II (MHII, cation adjusted) broth to give approximately 5×10^5 colony forming units (CFU/mL).
(§3) 10^6 colony forming units (CFU)/mL. Aliquots (90 μl) of inoculate were added to 10 μl of water+P-80 (Polysorbate 80, 0.002% final concentration) containing the peptide in serial two-fold dilutions at 10 fold final concentration. The following microorganisms were used to determine antibiotic selectivity of the peptides: Escherichia coli ATCC 25922, Escherichia coli MCR-1 Af 45 and Klebsiella pneumoniae SSI3010.

[2] = system: Escherichia coli MCR-1 Af 45; settings: Mueller-Hinton broth II, no visible growth after 18-20 hours at 35° C.
Protocol: as §1, §2, §3

[3] = system: Klebsiella pneumoniae SSI3010; settings: SSI3010
Protocol: as §1, §2, §3

[4] = system: human red blood cells (hRBC); format: cell-based; settings: red cells of human, 1 h, 0.2 g/L
Protocol: as §1
The peptides were tested for their hemolytic activity against human red blood cells (hRBC). Fresh hRBC were washed three times with phosphate buffered saline (PBS) and centrifuged for 5 min at 3000×g. Compounds (200 μg/mL) were incubated with 20% hRBC (v/v) for 1 h at 37° C. and shaking at 300 rpm. A value of 0% and 100% cell lyses, respectively, was determined by incubation of hRBC in the presence of PBS and 2.5% Triton X-100 in H2O, respectively. The samples were centrifuged, the supernatants were 8-fold diluted in PBS buffer and the optical densities (OD) were measured at 540 nm. The 100% lyses value (OD540H2O) gave an OD540 of approximately 0.5-1.0.
Percent hemolysis was calculated as follows: (OD540peptide/OD540H2O)×100%.

Row | Compound | Escherichia coli ATCC 25922 MIC [1] | Escherichia coli MCR-1 Af 45 MIC [2] | Klebsiella pneumoniae SSI3010 MIC [3] | Hemolysis at 0.2 g/L [4]
1 | CC[C@H](C)[C@H](NC(=O)[C@@H](NC(=O)[C@@H]1C[C@@H](O)CN1C(=O)[C@@H](N)C(C)C)[C@@H](C)CC)C(=O)N[C@@H](Cc1ccc(O)cc1)C(=O)N[C@@H]1C(=O)N[C@@H](CC(N)=O)C(=O)N[C@@H](CCCNC(=N)N)C(=O)N[C@@H](CCN)C(=O)N[C@@H](CO)C(=O)N[C@H](CCN)C(=O)N[C@@H](CCCCN)C(=O)N[C@H](C(=O)N[C@@H](CCN)C(=O)N[C@@H](CCN)C(=O)N[C@@H](Cc2ccc(O)cc2)C(=O)O)CSSC1(C)C [Example 76, Val-Hyp-Ile-Ile-Tyr-Pen-Asn-Arg-Dab-Ser-^DDab-Lys-Cys-Dab-Dab-Tyr] (HELM PEPTIDE1{V.[Hyp].I.I.Y.[Pen].N.R.[Dab].S.[NCC[C@@H](N[*:1])C(=O)[*:2]].K.C.[Dab].[Dab].Y}$PEPTIDE1,PEPTIDE1,6:R3-13:R3$$$V2.0) | 0.0625 µg/mL | 0.0625 µg/mL | 0.25 µg/mL | <1%
2 | CC[C@H](C)[C@H](NC(=O)[C@@H]1C[C@@H](O)CN1C(=O)[C@@H](N)C(C)C)C(=O)N[C@H](C(=O)N[C@@H](Cc1ccc(O)cc1)C(=O)N[C@@H]1C(=O)N[C@@H](CC(N)=O)C(=O)N[C@@H](CCCNC(=N)N)C(=O)N[C@@H](CCN)C(=O)N[C@@H](CO)C(=O)N[C@H](CCN)C(=O)N[C@@H](CCCCN)C(=O)N[C@H](C(=O)N[C@@H](CCN)C(=O)N[C@@H](CCN)C(=O)N[C@@H](Cc2ccc(O)cc2)C(=O)O)CSSC1(C)C)[C@@H](C)O [Example 77, Val-Hyp-Ile-Thr-Tyr-Pen-Asn-Arg-Dab-Ser-^DDab-Lys-Cys-Dab-Dab-Tyr] (HELM PEPTIDE1{V.[Hyp].I.T.Y.[Pen].N.R.[Dab].S.[NCC[C@@H](N[*:1])C(=O)[*:2]].K.C.[Dab].[Dab].Y}$PEPTIDE1,PEPTIDE1,6:R3-13:R3$$$V2.0) | 0.0625 µg/mL | 0.0625 µg/mL | 0.125 µg/mL | <1%
3 | CC[C@H](C)[C@H](NC(=O)[C@@H](NC(=O)[C@@H]1C[C@@H](O)CN1C(=O)[C@@H](N)C(C)C)[C@@H](C)CC)C(=O)N[C@@H](Cc1ccc(O)cc1)C(=O)N[C@@H]1C(=O)N[C@@H](CC(N)=O)C(=O)N[C@@H](CCCNC(=N)N)C(=O)N[C@@H](CCN)C(=O)N[C@@H]([C@@H](C)O)C(=O)N[C@H](CCN)C(=O)N[C@@H](CCCN)C(=O)N[C@H](C(=O)N[C@@H](CCN)C(=O)N[C@@H](CCCNC(=N)N)C(=O)N[C@@H](Cc2ccc(O)cc2)C(=O)O)CSSC1(C)C [Example 78, Val-Hyp-Ile-Ile-Tyr-Pen-Asn-Arg-Dab-Thr-^DDab-Orn-Cys-Dab-Arg-Tyr] (HELM PEPTIDE1{V.[Hyp].I.I.Y.[Pen].N.R.[Dab].T.[NCC[C@@H](N[*:1])C(=O)[*:2]].[Orn].C.[Dab].R.Y}$PEPTIDE1,PEPTIDE1,6:R3-13:R3$$$V2.0) | 0.0625 µg/mL | 0.0625 µg/mL | 0.125 µg/mL | <1%
4 | CC[C@H](N)C(=O)N1C[C@H](O)C[C@H]1C(=O)N[C@H](C(=O)N[C@H](C(=O)N[C@@H](Cc1ccc(O)cc1)C(=O)N[C@@H]1C(=O)N[C@@H](CC(N)=O)C(=O)N[C@@H](CCCNC(=N)N)C(=O)N[C@@H](CCN)C(=O)N[C@@H]([C@@H](C)O)C(=O)N[C@H](CCN)C(=O)N[C@@H](CCCCN)C(=O)N[C@H](C(=O)N[C@@H](CCN)C(=O)N[C@@H](CCCNC(=N)N)C(=O)N[C@@H](Cc2ccc(O)cc2)C(=O)O)CSSC1(C)C)[C@@H](C)CC)[C@@H](C)CC [Example 79, Abu-Hyp-Ile-Ile-Tyr-Pen-Asn-Arg-Dab-Thr-^DDab-Lys-Cys-Dab-Arg-Tyr] (HELM PEPTIDE1{[Abu].[Hyp].I.I.Y.[Pen].N.R.[Dab].T.[NCC[C@@H](N[*:1])C(=O)[*:2]].K.C.[Dab].R.Y}$PEPTIDE1,PEPTIDE1,6:R3-13:R3$$$V2.0) | 0.125 µg/mL | 0.125 µg/mL | 0.5 µg/mL | <1%
5 | CC[C@H](C)[C@H](NC(=O)[C@@H]1CCCN1C(=O)[C@@H](N)C(C)C)C(=O)N[C@H](C(=O)N[C@@H](Cc1ccc(O)cc1)C(=O)N[C@@H]1C(=O)N[C@@H](CC(N)=O)C(=O)N[C@@H](CCCNC(=N)N)C(=O)N[C@@H](CCN)C(=O)N[C@@H]([C@@H](C)O)C(=O)N[C@H](CCN)C(=O)N[C@@H](CCCCN)C(=O)N[C@H](C(=O)N[C@@H](CCN)C(=O)N[C@@H](CCCNC(=N)N)C(=O)N[C@@H](Cc2ccc(O)cc2)C(=O)O)CSSC1(C)C)[C@@H](C)O [Example 80, Val-Pro-Ile-Thr-Tyr-Pen-Asn-Arg-Dab-Thr-^DDab-Lys-Cys-Dab-Arg-Tyr] (HELM PEPTIDE1{V.P.I.T.Y.[Pen].N.R.[Dab].T.[NCC[C@@H](N[*:1])C(=O)[*:2]].K.C.[Dab].R.Y}$PEPTIDE1,PEPTIDE1,6:R3-13:R3$$$V2.0) | 0.125 µg/mL | 0.0625 µg/mL | 0.25 µg/mL | <1%
6 | CC[C@H](C)[C@H](NC(=O)[C@@H]1C[C@@H](O)CN1C(=O)[C@@H](N)C(C)C)C(=O)N[C@@H](CCN)C(=O)N[C@@H](Cc1ccc(O)cc1)C(=O)N[C@@H]1C(=O)N[C@@H](CC(N)=O)C(=O)N[C@@H](CCCNC(=N)N)C(=O)N[C@@H](CCN)C(=O)N[C@@H](CO)C(=O)N[C@H](CCN)C(=O)N[C@@H](CCCCN)C(=O)N[C@H](C(=O)N[C@@H](CCN)C(=O)N[C@@H](CCN)C(=O)N[C@@H](Cc2ccc(O)cc2)C(=O)O)CSSC1(C)C [Example 81, Val-Hyp-Ile-Dab-Tyr-Pen-Asn-Arg-Dab-Ser-^DDab-Lys-Cys-Dab-Dab-Tyr] (HELM PEPTIDE1{V.[Hyp].I.[Dab].Y.[Pen].N.R.[Dab].S.[NCC[C@@H](N[*:1])C(=O)[*:2]].K.C.[Dab].[Dab].Y}$PEPTIDE1,PEPTIDE1,6:R3-13:R3$$$V2.0) | 0.125 µg/mL | 0.0625 µg/mL | 0.5 µg/mL | <1%
7 | CC[C@H](C)[C@H](NC(=O)[C@@H](NC(=O)[C@@H]1C[C@@H](O)CN1C(=O)[C@@H](N)C(C)C)[C@@H](C)CC)C(=O)N[C@@H](Cc1ccc(O)cc1)C(=O)N[C@@H]1C(=O)N[C@@H](CC(N)=O)C(=O)N[C@@H](CCCNC(=N)N)C(=O)N[C@@H](CCCCN)C(=O)N[C@@H]([C@@H](C)O)C(=O)N[C@H](CCN)C(=O)N[C@@H](CCCCN)C(=O)N[C@H](C(=O)N[C@@H](CCCCN)C(=O)N[C@@H](CCCNC(=N)N)C(=O)N[C@@H](Cc2ccc(O)cc2)C(=O)O)CSSC1(C)C [Example 82, Val-Hyp-Ile-Ile-Tyr-Pen-Asn-Arg-Lys-Thr-^DDab-Lys-Cys-Lys-Arg-Tyr] (HELM PEPTIDE1{V.[Hyp].I.I.Y.[Pen].N.R.K.T.[NCC[C@@H](N[*:1])C(=O)[*:2]].K.C.K.R.Y}$PEPTIDE1,PEPTIDE1,6:R3-13:R3$$$V2.0) | 0.125 µg/mL | 0.125 µg/mL | 0.25 µg/mL | <1%
8 | CC[C@H](C)[C@H](NC(=O)[C@@H](NC(=O)[C@@H]1C[C@@H](O)CN1C(=O)[C@@H](N)C(C)C)[C@@H](C)CC)C(=O)N[C@@H](Cc1ccc(O)cc1)C(=O)N[C@@H]1C(=O)N[C@@H](CC(N)=O)C(=O)N[C@@H](CCCNC(=N)N)C(=O)N[C@@H](CCN)C(=O)N[C@@H]([C@@H](C)O)C(=O)N[C@H](CCN)C(=O)N[C@@H]([C@@H](C)CC)C(=O)N[C@H](C(=O)N[C@@H](CCN)C(=O)N[C@@H](CCN)C(=O)N[C@@H](Cc2ccc(O)cc2)C(=O)O)CSSC1(C)C [Example 83, Val-Hyp-Ile-Ile-Tyr-Pen-Asn-Arg-Dab-Thr-^DDab-Ile-Cys-Dab-Dab-Tyr] (HELM PEPTIDE1{V.[Hyp].I.I.Y.[Pen].N.R.[Dab].T.[NCC[C@@H](N[*:1])C(=O)[*:2]].I.C.[Dab].[Dab].Y}$PEPTIDE1,PEPTIDE1,6:R3-13:R3$$$V2.0) | 0.25 µg/mL | 0.25 µg/mL | 0.5 µg/mL | <1%
